Entries after “also recorded” stand apart in the source; their conditions may differ.
How the values were obtained:
TNF-[…] = experiment: kavain analog screening assay, TNF inhibition in BMM infected with P. gingivalis; type: cell-based, murine
Experimental: (§1) To identify compounds with strong anti-inflammatory properties, kavain analogs were tested in a screening assay based on TNF-[…] inhibition in BMM infected with P. gingivalis (FIG. 1B). This screen identified Kava-205Cl (5,5-dimethyl-3-oxocyclohex-1-en-1-yl 4-chlorobenzoate) and its methylated analog Kava-205Me (5,5-dimethyl-3-oxocyclohex-1-en-1-yl 4-methylbenzoate) (FIG. 1B) as effective inhibitors of TNF-[…] secretion (z=−0.99 and z=−1.07 respectively).

TNF-α [1] = experiment: TNF-α secretion, dose-response in THP-1 infected with P. gingivalis; type: cell-based, human
Experimental: (§2) See Amar, Salomon et al., Identification of a Kavain Analog with Efficient Anti-inflammatory Effects, [Currently unpublished], 2019. (Incorporated by reference in its entirety, herein). Specifically, in an in vitro assay of anti-inflammatory effects, murine macrophages (BMM) and THP-1 cells were infected with P. gingivalis (MOI=20:1) and a panel of cytokines were measured.
as §1

TNF-α [2] = experiment: TNF-α secretion, dose-response in BMM infected with P. gingivalis; type: cell-based, murine
Experimental: as §2, §1

[3] = system: IL-12, IFN-γ, MIP-1β, RANTES, IL-10, G-CSF and eotaxin; experiment: multiplex analysis of chemokines and cytokines from BMM exposed to P. gingivalis; type: cell-based, murine
Experimental: as §2
(§3) P. gingivalis is able to induce sustained recruitment of immune cells such a neutrophils and T-lymphocytes, whose presence is associated with excessive inflammation and tissue destruction at infectious sites. To evaluate the effect of Kava-205Me on the secretion of chemokines and cytokines from BMM exposed to P. gingivalis, a multiplex analysis was performed that compared P. gingivalis infected cells with and without treatment with Kava-205Me. […] Moreover, the gene expression of ACP5, an osteoclast specific gene, was evaluated in BMM infected with P. gingivalis with or without Kava-205Me treatment.

ACP5 = ACP5 gene expression in BMM infected with P. gingivalis; type: cell-based, murine
Experimental: as §3

[4] = system: P. gingivalis-induced calvarial destruction; experiment: acute model of P. gingivalis-induced calvarial destruction; type: in vivo
Experimental: as §2
In an acute model of P. gingivalis infection, Kava-205Me was administered to evaluate its anti-inflammatory and pro-healing properties in vivo. In this calvarial model, injection of P. gingivalis induced formation of a cutaneous abscess characterized by dermal inflammation and bone destruction (FIG. 4).

[5] = system: infective arthritis (collagen-antibody + P. gingivalis); experiment: infective arthritis murine model, P. gingivalis and AB peritoneal injection (Kava-205Me); type: in vivo, mice
Experimental: as §2
To evaluate the systemic effect of Kava-205Me, an infective arthritis was induced in mice by the combined insults of P. gingivalis and AB peritoneal injection. After 10 days, significant paw swelling was observed, confirming the establishment of joint inflammation and a destructive process (FIG. 5). […] This anti-inflammatory effect was confirmed histologically (FIG. 5C).

[6] = system: P. gingivalis+ type II collagen antibody induced periodontitis; experiment: collagen antibody primed oral gavage model of periodontitis; type: in vivo, mice
Experimental: The effect of Kava-241 on periodontal destruction in a collagen antibody primed oral gavage model of periodontitis was evaluated. In this example, experimental periodontitis was induced by oral gavage of P. gingivalis+ type II collagen antibody (AB) in mice during 15 days. Mice were treated with Kava-241 concomitantly or prior to P. gingivalis gavage and compared to untreated mice. Comprehensive histomorphometric analyses were performed. […] The Kava-241 effect was associated with a reduction in inflammatory cell counts within soft tissues and an increase in fibroblasts.

[7] = system: infective arthritis (P. gingivalis + ArthritoMab antibody cocktail); experiment: infective arthritis murine model triggered by P. gingivalis and primed with collagen antibody cocktail (Kava-241); type: in vivo, DBA1/BO male mice; conditions: CIA cocktail, treated concomitantly
From the text: Kava-241 (I-BC-241) is a compound derived from kavain and has been synthesized as described previously. In this example, we evaluated the systemic and articular effects Kava-241 in an infective arthritis murine model triggered by P. gingivalis bacterial inoculation and primed with collagen antibody cocktail (CIA) to induce joint inflammation and tissular destruction. Arthritis was induced in twenty-eight six-week-old, pathogen-free DBA1/BO male mice by two consecutive injections of ArthritoMab (AB) Antibody cocktail (CIA-MAB-2C, MD Bioproducts, Oakdale, MN, USA), the first injection of 7 mg at baseline, followed by a second injection of 4 mg at day 5. For P. gingivalis injected groups, 3 intraperitoneal injections of 5.10^8 bacteria/100 μl were performed at days 2, 8 and 11. Mice were sacrificed after 17 days. Clinical inflammation score and radiological analysis of the paws were performed continuously while histological assessment was obtained at sacrifice. Forepaws were evaluated to score arthritis using a visual qualitative assessment scoring as follows: 0) no paw swelling, 1) mild swelling, 2) moderate swelling, 3) severe swelling (22). Inflammation was also evaluated with X-rays examination.

TNF-α [8] = experiment: serum TNF-α in mice injected with P. gingivalis-lipopolysaccharide; type: in vivo; conditions: mice injected with TLR 2/4 ligand P. gingivalis-LPS
[9] = system: TLR-2/4, MAPKs related signal elements, LITAF; experiment: signalling in bone-marrow derived macrophages infected with P. gingivalis; type: cell-based, murine; conditions: BMM infected with P. gingivalis
TNF-α [10] = conditions: Escherichia coli LPS-stimulated RAW cells; cited from earlier work
[11] = system: P. gingivalis+ type II collagen antibody induced periodontitis; conditions: P. gingivalis induced PD in a collagen antibody primed mouse model; cited from earlier work
[12] = collagen-antibody (ArthriomAb)+P. gingivalis
[13] = P. gingivalis+ AG group, p<0.05

Which “TNF-[…] secretion, z” value (TNF-[…]) does the source give for `CC1(C)CC(=O)C=C(OC(=O)c2ccc(Cl)cc2)C1` [Kava-205Cl, 5,5-dimethyl-3-oxocyclohex-1-en-1-yl 4-chlorobenzoate] here?
Its value is −0.99.

For `Cc1ccc(C(=O)OC2=CC(=O)CC(C)(C)C2)cc1` [Kava-205Me, 5,5-dimethyl-3-oxocyclohex-1-en-1-yl 4-methylbenzoate], which “TNF-[…] secretion, z” value (TNF-[…]) is on record?
The value was −1.07.

What about the “TNF-α secretion induced by P. gingivalis” value (TNF-α [1]; THP-1 cells, MOI=20:1, 10 to 200 μg/ml) of the same compound?
Its value is “significantly and dose-dependently reduced”.

And the “TNF-[…] secretion” value (TNF-α [1]; THP-1 infected with P. gingivalis, lowest tested dose 10 µg/ml)?
The value was “reduced significantly”.

What about the “TNF-[…] secretion” value (TNF-α [2]; BMM infected with P. gingivalis, lowest tested dose 10 µg/ml) of the same compound?
The value was “reduced significantly”.

And the “TNF-α secretion induced by P. gingivalis” value (TNF-α [2]; BMM, MOI=20:1, 10 to 200 μg/ml)?
Its value is “significantly and dose-dependently reduced”.

What about the “concentrations of chemokines and cytokines (IL-12, IFN-γ, MIP-1β, RANTES, IL-10, G-CSF and eotaxin)” value ([3]; BMM exposed to P. gingivalis, multiplex analysis) of the same compound?
Its value is “significantly reduced”.

And the “secretion of IL-12, eotaxin, RANTES, IL-10 and interferon-γ” value ([3]; BMM infected with P. gingivalis, p<0.05)?
Its value is “reduced”.

And the ACP5 gene expression (ACP5)?
The ACP5 gene expression was “reduced”.

What about the osteoclastic activity [4] of the same compound?
Its osteoclastic activity is “reduced; also recorded: trend of reduction”.

What about the rate of healing ([4]; P. gingivalis injection) of the same compound?
Its rate of healing is “significantly improved; also recorded: significantly increased”.

What about the soft tissue inflammation ([4]; histological level) of the same compound?
The soft tissue inflammation was “reduced significantly”.

What about the “number of TRAP positive multinucleated cells in contact with bone (osteoclastic activity of the infiltrate)” value ([5]; P. gingivalis-exposed animals) of the same compound?
Its value is “reduction”.

What about the “inflammatory infiltrate in paw tissue sections” value ([5]; animals exposed to P. gingivalis, histology) of the same compound?
Its value is “significant reduction”.

What about the joint destruction [5, 12] of the same compound?
Its joint destruction is “reduce efficiently”.

And the paw swelling [5, 12]?
The paw swelling was “reduce efficiently”.

And the “P. gingivalis-induced paw swelling” value ([5]; systemic administration, 32 day time point)?
The value was “significantly decreased”.

For `CC1(C)CC(=O)C=C(OC(=O)c2ccccc2)C1` [Kava-241, 5,5-dimethyl-3-oxocyclohex-1-en-1-yl benzoate], which “reduced alveolar bone loss” value [6, 13] is on record?
Its value is 36%.

And the reduced epithelial down-growth [6, 13]?
Its reduced epithelial down-growth is 72%.

What about the “inflammatory cell counts within soft tissues” value ([6]; periodontitis model) of the same compound?
Its value is “reduction”.

What about the fibroblasts ([6]; periodontitis model, soft tissues) of the same compound?
Its fibroblasts is “increase”.

And the clinical inflammatory score [7]?
The clinical inflammatory score was “reduced”.

What about the “number of inflammatory cells within joint” value [7] of the same compound?
The value was “decreased”.

What about the “number of osteoclasts within joint” value [7] of the same compound?
The value was “decreased”.

What about the TNF-α in serum (TNF-α [8]) of the same compound?
The TNF-α in serum was “decreased significantly”.

And the LITAF [9]?
Its LITAF is “reduced”.

What about the “MAPKs related signal elements” value [9] of the same compound?
Its value is “reduced”.

What about the TLR-2/4 [9] of the same compound?
The TLR-2/4 was “reduced”.

And the TNF-α secretion (TNF-α [10])?
The TNF-α secretion was “reduced”.

What about the “inflammation including alveolar bone loss” value [11] of the same compound?
The value was “prevented”.

— US12630493B2, “Anti-inflammatory compounds” (priority 2018, dated 2026)
